Values joined by “and” are separate entries in the source; they are usually repeats but may differ in a detail not shown here. Equal entries are not always repeated. Where two headings read alike, the source gives them in different places.
Molecular target: T1, FIH^WT (Homo sapiens, UniProt Q9NWT6)
T1 construct: pET28a vectors encoding for full-length FIH with an N-terminal His6 tag; His6 (N); host or cells: Escherichia coli BL21
Test: Affinity-based fluorescence polarization (FP) assay with FIH WT, without and with 365 nm irradiation
Conditions: read-out: Binding affinity to FIH^WT: Ki
Source text: We also performed a reported affinity-based fluorescence polarization (FP) assay (Figure S6) , under light activation to measure the binding affinity of NBA-ZG-2291 to FIH (Figure A). […] These observations are consistent with the intact protein MS analyzes. We also evaluated the binding affinities of two negative controls to FIH, which were designed not to covalently react with Lys106.
4 (A) Light-induced click conjugation between NBA-ZG-2291 and FIH protein. (B) Light-induced binding affinity of NBA-ZG-2291 to FIH^ WT . (C) Light-induced binding affinity of NBA-ZG-2291 to FIH^ K106A . […] TEXT PRINTED IN THE PICTURE: (B) NBA-ZG-2291: Binding affinity to FIH^WT: Ki (nM): 414 ± 14 (Irradtion time (min): 0); Binding affinity to FIH^WT: Ki (nM): 74.1 ± 1.6 (Irradtion time (min): 15); Binding affinity to FIH^WT: Ki (nM): 46.7 ± 1.4 (Irradtion time (min): 30); Binding affinity to FIH^WT: Ki (nM): 33.2 ± 0.6 (Irradtion time (min): 60); Binding affinity to FIH^WT: Ki (nM): 30.2 ± 2.0 (Irradtion time (min): 90); Binding affinity to FIH^WT: Ki (nM): 32.1 ± 0.7 (Irradtion time (min): 120) | (B) Neg-1: Binding affinity to FIH^WT: Ki (nM): 423 ± 7 (Irradtion time (min): 0); Binding affinity to FIH^WT: Ki (nM): 408 ± 30 (Irradtion time (min): 15); Binding affinity to FIH^WT: Ki (nM): 459 ± 32 (Irradtion time (min): 30); Binding affinity to FIH^WT: Ki (nM): 427 ± 17 (Irradtion time (min): 60); Binding affinity to FIH^WT: Ki (nM): 396 ± 29 (Irradtion time (min): 90); Binding affinity to FIH^WT: Ki (nM): 428 ± 15 (Irradtion time (min): 120) | (B) Neg-2: Binding affinity to FIH^WT: Ki (nM): 742 ± 65 (Irradtion time (min): 0); Binding affinity to FIH^WT: Ki (nM): 799 ± 69 (Irradtion time (min): 15); Binding affinity to FIH^WT: Ki (nM): 758 ± 13 (Irradtion time (min): 30); Binding affinity to FIH^WT: Ki (nM): 744 ± 30 (Irradtion time (min): 60); Binding affinity to FIH^WT: Ki (nM): 788 ± 36 (Irradtion time (min): 90); Binding affinity to FIH^WT: Ki (nM): 786 ± 35 (Irradtion time (min): 120) | (C) NBA-ZG-2291: Binding affinity to FIH^K106A: Ki (nM): 442 ± 12 (Irradtion time (min): 0); Binding affinity to FIH^K106A: Ki (nM): 427 ± 22 (Irradtion time (min): 15); Binding affinity to FIH^K106A: Ki (nM): 426 ± 7 (Irradtion time (min): 30); Binding affinity to FIH^K106A: Ki (nM): 420 ± 11 (Irradtion time (min): 60); Binding affinity to FIH^K106A: Ki (nM): 418 ± 5 (Irradtion time (min): 90); Binding affinity to FIH^K106A: Ki (nM): 424 ± 12 (Irradtion time (min): 120) | (C) Neg-1: Binding affinity to FIH^K106A: Ki (nM): 271 ± 14 (Irradtion time (min): 0); Binding affinity to FIH^K106A: Ki (nM): 275 ± 15 (Irradtion time (min): 15); Binding affinity to FIH^K106A: Ki (nM): 268 ± 25 (Irradtion time (min): 30); Binding affinity to FIH^K106A: Ki (nM): 266 ± 22 (Irradtion time (min): 60); Binding affinity to FIH^K106A: Ki (nM): 264 ± 41 (Irradtion time (min): 90); Binding affinity to FIH^K106A: Ki (nM): 270 ± 3 (Irradtion time (min): 120) | (C) Neg-2: Binding affinity to FIH^K106A: Ki (nM): 567 ± 37 (Irradtion time (min): 0); Binding affinity to FIH^K106A: Ki (nM): 548 ± 61 (Irradtion time (min): 15); Binding affinity to FIH^K106A: Ki (nM): 521 ± 50 (Irradtion time (min): 30); Binding affinity to FIH^K106A: Ki (nM): 627 ± 17 (Irradtion time (min): 60); Binding affinity to FIH^K106A: Ki (nM): 565 ± 10 (Irradtion time (min): 90); Binding affinity to FIH^K106A: Ki (nM): 552 ± 38 (Irradtion time (min): 120) […]
3. Experimental procedures
3.1 Fluorescence polarization (FP) assays1 with FIHWT and FIHK106A pET28a vectors encoding for full-length FIH with an N-terminal His6 tag or for FIH (K106A) with an N-terminal His6 tag were purchased from Nanjing Zoonbio Biotechnology. Both the FIHWT and FIHK106A protein were expressed from the respective plasmid in Escherichia coli BL21 at 20 °C for 16 h. E. coli cells were lysed and the lysate were clarified by centrifugation. His6- […]

T1 sequence (Q9NWT6 whole entry): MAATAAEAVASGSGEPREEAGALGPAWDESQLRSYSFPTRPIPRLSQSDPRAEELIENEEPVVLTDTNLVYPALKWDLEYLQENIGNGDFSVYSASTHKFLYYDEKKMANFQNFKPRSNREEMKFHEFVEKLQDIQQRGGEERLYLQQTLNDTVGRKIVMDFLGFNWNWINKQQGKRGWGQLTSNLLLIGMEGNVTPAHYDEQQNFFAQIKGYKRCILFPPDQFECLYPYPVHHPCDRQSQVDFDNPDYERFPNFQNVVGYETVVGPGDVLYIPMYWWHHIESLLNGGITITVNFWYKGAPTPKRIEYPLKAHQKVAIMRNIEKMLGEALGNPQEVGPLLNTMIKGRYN

O=C(O)CNC(=O)c1ncc(-c2cc(-c3ccc(CO)c([N+](=O)[O-])c3)no2)cc1O [NBA-ZG-2291]
Ki (irradiation time 0 min): 414 ± 14 nM | Ki (irradiation time 15 min): 74.1 ± 1.6 nM | Ki (irradiation time 30 min): ~40 nM and 46.7 nM | Ki (irradiation time 60 min): 33.2 ± 0.6 nM | Ki (irradiation time 90 min): 30.2 ± 2 nM | Ki (irradiation time 120 min): 32.1 ± 0.7 nM

— publication PMC12123601, “Light-Induced, Lysine-Targeting Irreversible Covalent Inhibition of the Human Oxygen Sensing Hydroxylase Factor Inhibiting HIF (FIH)” (Journal of the American Chemical Society, 2025)
